Results as given in US6552235B2, “Process for the preparation of cyclohexanol” (Asahi Kasei Kabushiki Kaisha, priority 1999, dated 2003).
Like-named read-outs stand apart in the source and are kept apart here.

Assays:
[1] = Liquid-liquid distribution coefficient of cyclohexene at 120° C. and solvent effect index; format: physicochemical; details: for Solvent effect index: distribution coefficient in solvent-free system/in solvent-containing system; for Distribution coefficient of cyclohexene: molar fraction in oil phase/aqueous phase, cyclohexene/cyclohexanol/organic solvent/water 56.7/13.3/30/100 by weight
Description: The organic solvent used in the present invention has a solvent effect index (defined below) of not less than 1.5. The solvent effect index in the present invention is defined to be a ratio of a distribution coefficient of cyclohexene in the absence of solvent at 120° C. and a distribution coefficient of cyclohexene in a solvent-containing system at 120° C. (distribution coefficient of cyclohexene in the absence of solvent/distribution coefficient of cyclohexene in a solvent-containing system), and it indicates an effect to make predominate the distribution of cyclohexene into an aqueous solution due to the presence of the organic solvent.
Detailedly, the solvent effect index in the present invention is obtained in the following manner. Cyclohexene/cyclohexanol/organic solvent/water are charged at a weight ratio of 56.7/13.3/30/100, and the distribution coefficient of cyclohexene (molar fraction of cyclohexene in oil phase/molar fraction of cyclohexene in aqueous phase) is obtained from the liquid composition of both phases of the oil phase and the aqueous phase in an equilibrium state kept at 120° C. The ratio of the resulting distribution coefficient of cyclohexene and the distribution coefficient of cyclohexene in a solvent-free system (measured at 120° C. by charging cyclohexene/cyclohexanol/water at a weight ratio of 56.7/13.3/100), namely, the ratio of distribution coefficient in solvent-free system/distribution coefficient in solvent-containing system, is the solvent effect index in the present invention.
Here, the distribution coefficient of cyclohexene is measured by the following method. That is, an oil and water at the above weight ratio are charged in a pressure container under a nitrogen pressure, and sufficiently stirred and mixed at a rising temperature of 120° C., followed by reducing the stirring speed and leaving at rest for a time long enough to reach an equilibrium state. Thereafter, each of the oil phase and the aqueous phase is sampled in a solvent such as 1,4-dioxane, and the compositions of both the oil phase and the aqueous phase are obtained from analysis by gas chromatography and a Karl Fischer moisture meter. Thus, the distribution coefficient of cyclohexene is measured.

[2] = cited from earlier work
[3] = Solvent conversion rate in batch-wise hydration reaction of cyclohexene (H-ZSM-5 zeolite-A); format: physicochemical; details: 120° C.; for Solvent convertion rate: H-ZSM-5-A, 20 g solvent
Description: The organic solvent used as a reaction solvent in the method of the present invention has a conversion rate of not more than 3% under the hydration reaction conditions of cyclohexene. The conversion rate of the organic solvent in the present invention is a conversion rate in the reaction of the organic solvent per se or the organic solvent with cyclohexene or cyclohexanol per 1 hour of batch reaction at the reaction temperature at which the hydration reaction of cyclohexene is carried out. In industrial working of the present invention, the solvent used for the reaction is separated from the product cyclohexanol and circulated for reuse.
30 g of the resulting H-ZSM-5 zeolite-A catalyst and 81 g of water were charged in a glass autoclave A and heated to 120° C. with stirring under application of a nitrogen pressure of 0.5 MPa. Separately, 61 g of cyclohexene and 20 g of isophorone were charged in a glass autoclave B and heated to 120° C. under application of a nitrogen pressure of 0.6 MPa. Thereafter, the cyclohexene/isophorone mixed liquid was sent under pressure from the glass autoclave B to the glass autoclave A, and the reaction was started. After the reaction for 1 hour, the stirring was stopped, and the oil phase was sampled and analyzed by gas chromatography. At the sampling, the reaction mixture separated to two phases of oil phase and aqueous phase immediately after stopping of stirring. Yield and selectivity of cyclohexanol were as follows.
The hydration reaction of cyclohexene was carried out in the same manner as in Example 1, except that ethylene glycol monophenyl ether, phenethyl alcohol and 3,3,5-trimethylcyclohexanone were respectively used as the reaction solvents. The results of the reactions are shown in Table 1, and characteristics of the organic solvents used in this Example are shown in Table 2.
The reaction was carried out in the same manner as in Example 1, except that benzyl alcohol was used as the solvent. Yield of cyclohexanol after each reaction time was as follows.

[4] = Solvent conversion rate in continuous fixed-bed flowing hydration reaction of cyclohexene; format: physicochemical; details: fixed-bed flow; for Solvent conversion rate: 30 wt % solvent, 124-134° C., 2 MPa
Description: A continuous fixed-bed flowing reaction test of a cyclohexene hydration reaction was conducted under the following conditions using ethylene glycol monophenyl ether (EGMPE) as a reaction solvent. As a reaction apparatus, a stainless steel reaction vessel of 26.5 mm in internal diameter provided with a heating medium jacket was used. In the upper part of the reaction vessel, there were provided feed openings for water and oil, and in the lower part of the reaction vessel, oil and water in the mixed state were led to a reaction mixture storage tank through a pressure regulating valve, and oil and water were separated from each other in the reaction mixture storage tank. ZSM-5 zeolite (silica/alumina molar ratio=50) manufactured by Engelhard Co., Ltd. with addition of 20 wt % of an alumina binder was extrusion molded to a size of 1/16 inch in external diameter and 5 mm in length, and this was used as the catalyst. The height of the catalyst layer was 240 mm. The continuous reaction was carried out by an oil-water falling parallel flow sealing reaction method under the following conditions.
The oil phase discharged into the reaction mixture storage tank was analyzed by gas chromatography to obtain the results of the reaction. At the time of starting of the reaction, only cyclohexene was fed, and after a lapse of 20 hours from the starting of the reaction, the starting material was changed to a mixed liquid of cyclohexene/ethylene glycol monophenyl ether=70/30 (weight ratio), and thereafter the reaction was continued for 150 hours.

[5] = phenol-containing system, 120° C.; solvent-free system 3818; cited from earlier work

Compound | Solvent effect index [1] | Distribution coefficient of cyclohexene [1] | Solubility in water (25° C.) [2] [g/100 ml] | Solvent convertion rate ([3]; 1 hour) [%] | other results
CC1CC(=O)CC(C)(C)C1 (centres unmarked) [3,3,5-Trimethylcyclohexanone] | 2.14 | 1929 | 0.80 | 0.00 | –
OCCOc1ccccc1 [Ethylene glycol monophenyl ether, ethylene glycol monophenyl ether] | 2.46 | 1681 | 2.70 | 0.70 | Solvent conversion rate ([4]; reaction time 25 Hr): 0.84%; Solvent conversion rate ([4]; reaction time 80 Hr): 0.63%; Solvent conversion rate ([4]; reaction time 150 Hr): 0.42%; conversion rate to ethylene glycol cyclohexylphenyl ether ([4]; under the hydration reaction conditions): less than 1%
CC1=CC(=O)CC(C)(C)C1 [Isophorone] | 2.19 | 1884 | 1.2 | 0.00 | Solubility in water (25° C.) ([2]; listed as IPN): 1.20 g/100 ml; change of the solvent in the hydration reaction ([3]; H-ZSM-5 zeolite-A, 1 hour): showed no change
OCCc1ccccc1 [Phenethyl alcohol] | 2.24 | 1846 | 2.00 | 0.35 | –
OCc1ccccc1 [benzyl alcohol, reference compound] | – | – | – | – | conversion rate of the reaction solvent to dibenzyl ether ([3]; H-ZSM-5 zeolite-A, after 1 hour): 11.4%; conversion rate of the reaction solvent to dibenzyl ether ([3]; H-ZSM-5 zeolite-A, after 2 hours): 16.0%
O=C1CCCCC1 [cyclohexanone, reference compound] | – | – | – | – | solubility in water [2]: 8.7%
Oc1ccccc1 [phenol] | – | – | – | – | cyclohexene distribution coefficient (concentration in oil phase mol %/aqueous phase mol %) [5]: 680
